{
  "source": "PubChem BioAssay (NCI)",
  "assay_in_all_cases": "DTP human tumour cell line panel, 48 h",
  "key": {"NCI-H23 lung": {"test_system": "NCI-H23 lung"}, "NCI-H460 lung": {"test_system": "NCI-H460 lung"}, "NCI-H522 lung": {"test_system": "NCI-H522 lung"}, "NCI/ADR-RES ovarian": {"test_system": "NCI/ADR-RES ovarian"}, "OVCAR-3 ovarian": {"test_system": "OVCAR-3 ovarian"}, "OVCAR-4 ovarian": {"test_system": "OVCAR-4 ovarian"}, "OVCAR-5 ovarian": {"test_system": "OVCAR-5 ovarian"}, "OVCAR-8 ovarian": {"test_system": "OVCAR-8 ovarian"}, "PC-3 prostate": {"test_system": "PC-3 prostate"}, "RPMI-8226 leukemia": {"test_system": "RPMI-8226 leukemia"}, "RXF 393 renal": {"test_system": "RXF 393 renal"}, "SF-268 CNS": {"test_system": "SF-268 CNS"}, "SF-295 CNS": {"test_system": "SF-295 CNS"}, "SF-539 CNS": {"test_system": "SF-539 CNS"}, "SK-MEL-2 melanoma": {"test_system": "SK-MEL-2 melanoma"}, "SK-MEL-28 melanoma": {"test_system": "SK-MEL-28 melanoma"}, "SK-MEL-5 melanoma": {"test_system": "SK-MEL-5 melanoma"}, "SK-OV-3 ovarian": {"test_system": "SK-OV-3 ovarian"}, "SN12C renal": {"test_system": "SN12C renal"}, "SNB-19 CNS": {"test_system": "SNB-19 CNS"}, "SNB-75 CNS": {"test_system": "SNB-75 CNS"}, "SR leukemia": {"test_system": "SR leukemia"}, "SW-620 colon": {"test_system": "SW-620 colon"}, "T-47D breast": {"test_system": "T-47D breast"}, "TK-10 renal": {"test_system": "TK-10 renal"}, "U251 CNS": {"test_system": "U251 CNS"}, "UACC-257 melanoma": {"test_system": "UACC-257 melanoma"}, "UACC-62 melanoma": {"test_system": "UACC-62 melanoma"}, "UO-31 renal": {"test_system": "UO-31 renal"}},
  "note": "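Tested at 5 concentrations; 48 h exposure; 96-well plates; endpoints linearly interpolated, else capped at highest concentration. GI50: concentration for 50% inhibition of growth. TGI marks complete inhibition of growth.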 *1 amine or outer side, *2 acyl side, *3 side chain or, on linkers, in order; H or OH if unused. Where a SMILES comes first, the peptide text is derived from it. [ ]: non-standard residue; d: D form. The star is where a group is joined. X11 = C/C=C/CC(C)C(O)[C@H](N[*:1])C(=O)[*:2]; Decanoyl = CCCCCCCCCC(=O)*; Leu(ol) = CC(C)C[C@H](N)CO; Iva = CC[C@](C)(N)C(=O)O; Aib = CC(C)(N)C(=O)O",
  "data": [
    {"smiles": "C/C=C/CC(C)C(O)[C@H](NC(=O)[C@@H]1CCCN1C(=O)C(C)(C)NC(=O)CCCCCCCCC)C(=O)N[C@@](C)(CC)C(=O)N[C@@H](CCC(N)=O)C(=O)N[C@H](CCC(N)=O)C(=O)NC(C)(C)C(=O)NC(C)(C)C(=O)N[C@@H](CCC(N)=O)C(=O)N[C@H](CC(C)C)C(=O)N[C@H](CO)CC(C)C", "note": "(stereo partly drawn) (Decanoyl-[Aib]P[X11][Iva]Q[dQ][Aib][Aib]Q[dL][Leu(ol)])", "values": [
      {"measurement": "GI50", "setting": "NCI-H23 lung", "result": 2.32, "unit": "µM"},
      {"measurement": "TGI", "setting": "NCI-H23 lung", "result": 5.42, "unit": "µM"},
      {"measurement": "GI50", "setting": "NCI-H460 lung", "result": 1.86, "unit": "µM"},
      {"measurement": "TGI", "setting": "NCI-H460 lung", "result": 3.45, "unit": "µM"},
      {"measurement": "GI50", "setting": "NCI-H522 lung", "result": 1.7, "unit": "µM"},
      {"measurement": "TGI", "setting": "NCI-H522 lung", "result": 3.36, "unit": "µM"},
      {"measurement": "GI50", "setting": "NCI/ADR-RES ovarian", "result": 2.04, "unit": "µM"},
      {"measurement": "TGI", "setting": "NCI/ADR-RES ovarian", "result": 4.45, "unit": "µM"},
      {"measurement": "GI50", "setting": "OVCAR-3 ovarian", "result": 2.02, "unit": "µM"},
      {"measurement": "TGI", "setting": "OVCAR-3 ovarian", "result": 4.35, "unit": "µM"},
      {"measurement": "GI50", "setting": "OVCAR-4 ovarian", "result": 3.91, "unit": "µM"},
      {"measurement": "TGI", "setting": "OVCAR-4 ovarian", "result": 9.05, "unit": "µM"},
      {"measurement": "GI50", "setting": "OVCAR-5 ovarian", "result": 1.73, "unit": "µM"},
      {"measurement": "TGI", "setting": "OVCAR-5 ovarian", "result": 3.29, "unit": "µM"},
      {"measurement": "GI50", "setting": "OVCAR-8 ovarian", "result": 1.84, "unit": "µM"},
      {"measurement": "TGI", "setting": "OVCAR-8 ovarian", "result": 3.99, "unit": "µM"},
      {"measurement": "GI50", "setting": "PC-3 prostate", "result": 1.84, "unit": "µM"},
      {"measurement": "TGI", "setting": "PC-3 prostate", "result": 3.65, "unit": "µM"},
      {"measurement": "GI50", "setting": "RPMI-8226 leukemia", "result": 2.05, "unit": "µM"},
      {"measurement": "TGI", "setting": "RPMI-8226 leukemia", "result": 4.51, "unit": "µM"},
      {"measurement": "GI50", "setting": "RXF 393 renal", "result": 2.15, "unit": "µM"},
      {"measurement": "TGI", "setting": "RXF 393 renal", "result": 4.01, "unit": "µM"},
      {"measurement": "GI50", "setting": "SF-268 CNS", "result": 1.83, "unit": "µM"},
      {"measurement": "TGI", "setting": "SF-268 CNS", "result": 3.56, "unit": "µM"},
      {"measurement": "GI50", "setting": "SF-295 CNS", "result": 1.76, "unit": "µM"},
      {"measurement": "TGI", "setting": "SF-295 CNS", "result": 3.32, "unit": "µM"},
      {"measurement": "GI50", "setting": "SF-539 CNS", "result": 1.76, "unit": "µM"},
      {"measurement": "TGI", "setting": "SF-539 CNS", "result": 3.17, "unit": "µM"},
      {"measurement": "GI50", "setting": "SK-MEL-2 melanoma", "result": 1.81, "unit": "µM"},
      {"measurement": "TGI", "setting": "SK-MEL-2 melanoma", "result": 3.49, "unit": "µM"},
      {"measurement": "GI50", "setting": "SK-MEL-28 melanoma", "result": 1.76, "unit": "µM"},
      {"measurement": "TGI", "setting": "SK-MEL-28 melanoma", "result": 3.16, "unit": "µM"},
      {"measurement": "GI50", "setting": "SK-MEL-5 melanoma", "result": 1.79, "unit": "µM"},
      {"measurement": "TGI", "setting": "SK-MEL-5 melanoma", "result": 3.3, "unit": "µM"},
      {"measurement": "GI50", "setting": "SK-OV-3 ovarian", "result": 3.85, "unit": "µM"},
      {"measurement": "TGI", "setting": "SK-OV-3 ovarian", "result": 8.71, "unit": "µM"},
      {"measurement": "GI50", "setting": "SN12C renal", "result": 2.17, "unit": "µM"},
      {"measurement": "TGI", "setting": "SN12C renal", "result": 4.92, "unit": "µM"},
      {"measurement": "GI50", "setting": "SNB-19 CNS", "result": 1.7, "unit": "µM"},
      {"measurement": "TGI", "setting": "SNB-19 CNS", "result": 3.15, "unit": "µM"},
      {"measurement": "GI50", "setting": "SNB-75 CNS", "result": 1.48, "unit": "µM"},
      {"measurement": "TGI", "setting": "SNB-75 CNS", "result": 2.98, "unit": "µM"},
      {"measurement": "GI50", "setting": "SR leukemia", "result": 1.37, "unit": "µM"},
      {"measurement": "TGI", "setting": "SR leukemia", "result": 3.07, "unit": "µM"},
      {"measurement": "GI50", "setting": "SW-620 colon", "result": 2.75, "unit": "µM"},
      {"measurement": "TGI", "setting": "SW-620 colon", "result": 7.17, "unit": "µM"},
      {"measurement": "GI50", "setting": "T-47D breast", "result": 2.31, "unit": "µM"},
      {"measurement": "TGI", "setting": "T-47D breast", "result": 5.95, "unit": "µM"},
      {"measurement": "GI50", "setting": "TK-10 renal", "result": 2.13, "unit": "µM"},
      {"measurement": "TGI", "setting": "TK-10 renal", "result": 4.93, "unit": "µM"},
      {"measurement": "GI50", "setting": "U251 CNS", "result": 1.75, "unit": "µM"},
      {"measurement": "TGI", "setting": "U251 CNS", "result": 3.36, "unit": "µM"},
      {"measurement": "GI50", "setting": "UACC-257 melanoma", "result": 1.77, "unit": "µM"},
      {"measurement": "TGI", "setting": "UACC-257 melanoma", "result": 3.37, "unit": "µM"},
      {"measurement": "GI50", "setting": "UACC-62 melanoma", "result": 1.75, "unit": "µM"},
      {"measurement": "TGI", "setting": "UACC-62 melanoma", "result": 3.38, "unit": "µM"},
      {"measurement": "GI50", "setting": "UO-31 renal", "result": 1.56, "unit": "µM"},
      {"measurement": "TGI", "setting": "UO-31 renal", "result": 3.12, "unit": "µM"}
    ]}
  ]
}
